System: H2122 human lung cancer line, m855 mouse GEM line, diffuse large B-cell lymphoma and Burkitt's lymphoma cell lines
Assay: Combination with JQ1, cell viability isobolograms (cell line not stated for the result)
Assay type: cell-based
Conditions: for Effect on JQ1 activity at doses where the agent alone has no effect: in combination with JQ1, doses where they alone have no effect
Method: Compounds were profiled against H2122 human lung cancer line and m855 mouse GEM line containing p53/kRas mutations. Compounds were also profiled against diffuse large B-cell lymphoma cell lines OCI-Ly1, OCI-Ly3, OCI-Ly4, OCI-Ly7, S-DHL4, SU-DHL6, SU-DHL7, HBL1, K422, U2932 and Toledo, and against Burkitt's lymphoma cell lines Raji and Ca46.
Using a Biotek EL406, 50 uL of cell media containing 20-60,000 cells/ml was distributed into white 384-well Nunc plates (Thermo). Suspension cells then received compound immediately while adherent cells lines were given one hour to reattach to the surface of the plate prior to compound addition. The compounds to be tested were dissolved in DMSO and arrayed on 384 well compound storage plates (Greiner). Each compound plate received one compound in 5 point dose response approximately centered on the IC50 of the given compound for a given cell line.
After addition of compound, cell plates were incubated for 72 hr in a […] incubator. Cell viability was evaluated using ATPlite (Perkin Elmer) following manufacturer protocols. Data was analyzed in CalcuSyn utilizing the median effect principle of presented by Chou-Talalay and visualized using GraphPad Prism Software. Key parameters assessed were combination index and dose reduction index.
Points below the 1 to 1 line connecting the X and Y axes are ‘synergistic’, points near the line are ‘additive’, and points above it are antagonistic.

Compound: CO[C@H]1C[C@@H]2CC[C@@H](C)[C@@](O)(O2)C(=O)C(=O)N2CCCC[C@H]2C(=O)O[C@H]([C@H](C)C[C@@H]2CC[C@@H](OC(=O)C(C)(CO)CO)[C@H](OC)C2)CC(=O)[C@H](C)/C=C(\C)[C@@H](O)[C@@H](OC)C(=O)[C@H](C)C[C@H](C)/C=C/C=C/C=C/1C [temsirolimus]
- Type of response when administered in combination with JQ1 (isobologram): additive effects
- Effect on JQ1 activity at doses where the agent alone has no effect: increased the effect of JQ1

Compound: COc1cc([C@@H]2c3cc4c(cc3[C@@H](O[C@@H]3O[C@@H]5CO[C@@H](C)O[C@H]5[C@H](O)[C@H]3O)[C@H]3COC(=O)[C@H]23)OCO4)cc(OC)c1O [etoposide]
- Type of response when administered in combination with JQ1 (isobologram): synergistic response

Compound: C[C@@H](Oc1cc(-c2cnn(C3CCNCC3)c2)cnc1N)c1c(Cl)ccc(F)c1Cl [crizotinib]
- Type of response when administered in combination with JQ1 (isobologram): synergistic response

Compound: NC1(c2ccc(-c3nc4ccn5c(=O)[nH]nc5c4cc3-c3ccccc3)cc2)CCC1 [MK2206]
- Type of response when administered in combination with JQ1 (isobologram): synergistic response

Compound: Cn1c(=O)n(-c2ccc(C(C)(C)C#N)cc2)c2c3cc(-c4cnc5ccccc5c4)ccc3ncc21 [BEZ235]
- Type of response when administered in combination with JQ1 (isobologram): additive effects
- Effect on JQ1 activity at doses where the agent alone has no effect: increased the effect of JQ1
